Target: T1, Ba/F3-FGFR3-transfected cells (Homo sapiens, UniProt P22607, cells depend on it, form not given)
T1 construct: BAF3-FGFR3 (MIN IL3 pIC50); other: minus IL3; 24 hours, Alamar Blue
Assay: Ba/F3-FGFR3 (minus IL3 or plus IL3) cellular proliferation assay
Type: cell-based
Conditions: 24 hours, Alamar Blue
Description: Ba/F3-FGFR3 (Minus IL3 or Plus IL3) (Cellular Proliferation Assay)
(§1) In a 384 well plate, 100 nl of compound dilution in DMSO was sprayed before adding 50 μl cell culture medium (phenol red free RPMI-1640, 10% FBS, 2 mM L-Glutamine and 50 μg/ml Gentamycin) containing 20000 cells per well of Ba/F3-FGFR3-transfected cells. Cells were put in an incubator at 37° C. and 5% CO2. After 24 hours, 10 μl of Alamar Blue solution (0.5 mM K3Fe(CN)6, 0.5 mM K4Fe(CN)6, 0.15 mM Resazurin and 100 mM Phosphate Buffer) was added to the wells, incubated for 4 hours at 37° C. and 5% CO2 before RFU's (Relative Fluorescence Units) (ex. 540 nm., em. 590 nm.) were measured in a fluorescence plate reader.
(§2) In this assay, the inhibitory effect of different compound concentrations (range 10 μM to 0.1 nM) was determined and used to calculate an IC50 (M) and pIC50 (−log IC50) value. As a counterscreen the same experiment was performed in the presence of 10 ng/ml murine IL3.

T1 sequence (P22607 whole entry, looked up, change not shown): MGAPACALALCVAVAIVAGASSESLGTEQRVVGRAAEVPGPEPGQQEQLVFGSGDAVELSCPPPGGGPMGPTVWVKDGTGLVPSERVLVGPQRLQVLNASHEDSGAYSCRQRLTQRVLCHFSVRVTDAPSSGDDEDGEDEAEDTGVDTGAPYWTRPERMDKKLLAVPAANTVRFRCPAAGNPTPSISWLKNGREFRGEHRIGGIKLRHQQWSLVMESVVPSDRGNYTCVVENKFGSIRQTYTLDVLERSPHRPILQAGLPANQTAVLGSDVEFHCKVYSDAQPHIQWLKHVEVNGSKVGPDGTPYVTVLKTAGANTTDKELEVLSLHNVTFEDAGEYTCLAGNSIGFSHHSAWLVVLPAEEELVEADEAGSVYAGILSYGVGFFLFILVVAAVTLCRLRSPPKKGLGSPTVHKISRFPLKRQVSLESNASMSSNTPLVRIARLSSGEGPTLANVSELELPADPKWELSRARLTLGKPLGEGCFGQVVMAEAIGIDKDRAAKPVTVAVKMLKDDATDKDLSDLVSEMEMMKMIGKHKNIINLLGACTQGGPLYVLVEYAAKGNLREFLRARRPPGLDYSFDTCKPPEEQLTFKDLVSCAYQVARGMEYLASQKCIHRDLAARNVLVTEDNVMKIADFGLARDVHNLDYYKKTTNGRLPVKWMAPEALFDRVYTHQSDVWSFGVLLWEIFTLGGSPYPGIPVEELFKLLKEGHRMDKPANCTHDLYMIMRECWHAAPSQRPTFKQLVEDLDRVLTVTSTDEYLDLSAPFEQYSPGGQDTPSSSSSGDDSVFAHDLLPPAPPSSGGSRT

SMILES	BAF3-FGFR3 (MIN IL3 pIC50)
COc1cc(OC)c(F)c(N(Cc2ncc[nH]2)c2ccc3ncn(-c4cnn(C)c4)c(=O)c3c2)c1 [Compound 15]	~7.15
COc1cc(OC)c(F)c(N(CCNC(C)C)c2ccc3ncn(-c4ccccc4)c(=O)c3c2)c1F [Compound 2]	7.6
COc1cc(OC)c(F)c(N(Cc2ncc[nH]2)c2ccc3ncn(-c4ccccc4)c(=O)c3c2)c1F [Compound 4]	6.2
COc1cc(OC)c(F)c(N(CCO)c2ccc3ncn(-c4ccccc4)c(=O)c3c2)c1 [Compound 6]	5.5

Target: T2, Ba/F3-KDR-transfected cells (Homo sapiens, UniProt P35968, cells depend on it, form not given)
T2 construct: BAF3-KDR (MIN IL3 pIC50); other: minus IL3; 24 hours, Alamar Blue
Assay: Ba/F3-KDR (minus IL3 or plus IL3) cellular proliferation assay
Type: cell-based
Conditions: 24 hours, Alamar Blue
Description: Ba/F3-KDR (Minus IL3 or Plus IL3) (Cellular Proliferation Assay)
as §1, with “Ba/F3-KDR-transfected” for “Ba/F3-FGFR3-transfected”
as §2

SMILES	BAF3-KDR (MIN IL3 pIC50)
COc1cc(OC)c(F)c(N(Cc2ncc[nH]2)c2ccc3ncn(-c4cnn(C)c4)c(=O)c3c2)c1 [Compound 15]	<5
COc1cc(OC)c(F)c(N(CCNC(C)C)c2ccc3ncn(-c4ccccc4)c(=O)c3c2)c1F [Compound 2]	5.7
COc1cc(OC)c(F)c(N(Cc2ncc[nH]2)c2ccc3ncn(-c4ccccc4)c(=O)c3c2)c1F [Compound 4]	<5
COc1cc(OC)c(F)c(N(CCO)c2ccc3ncn(-c4ccccc4)c(=O)c3c2)c1 [Compound 6]	<5

Target: KDR (h) (Homo sapiens, UniProt P35968)
Assay: KDR (VEGFR2) (enzymatic assay), TR-FRET
Type: biochemical
Conditions: 3 μM ATP; pIC50 = -log IC50 (M); read-out: VEGFR KDR pIC50 (converted)
Description: KDR (VEGFR2) (Enzymatic Assay)
In a final reaction volume of 30 μL, KDR (h) (150 ng/ml) was incubated with 50 mM HEPES pH 7.5, 6 mM MnCl2, 1 mM DTT, 0.1 mM Na3VO4, 0.01% Triton-X-100, 500 nM Btn-Flt3 and 3 μM ATP in the presence of compound (1% DMSO final). After incubation for 120 minutes at room temperature the reaction was stopped with 2.27 nM EU-anti P-Tyr, 7 mM EDTA, 31.25 nM SA-XL-665 and 0.02% BSA which was present for 60 minutes at room temperature. Time-Resolved Fluorescence Resonance Energy Transfer (TR-FRET) signal (ex340 nm. Em 620 nm, em 655 nm) was measured afterwards and results are expressed in RFU (Relative Fluorescence Units). In this assay, the inhibitory effect of different compound concentrations (range 10 μM to 0.1 nM) was determined and used to calculate an IC50 (M) and pIC50 (−log IC50) value.

SMILES	IC50 [M]
COc1cc(OC)c(F)c(N(Cc2ncc[nH]2)c2ccc3ncn(-c4cnn(C)c4)c(=O)c3c2)c1 [Compound 15]	3.98e-07
COc1cc(OC)c(F)c(N(CCNC(C)C)c2ccc3ncn(-c4ccccc4)c(=O)c3c2)c1F [Compound 2]	2.51e-07
COc1cc(OC)c(F)c(N(Cc2ncc[nH]2)c2ccc3ncn(-c4ccccc4)c(=O)c3c2)c1F [Compound 4]	> 1e-06
COc1cc(OC)c(F)c(N(CCO)c2ccc3ncn(-c4ccccc4)c(=O)c3c2)c1 [Compound 6]	> 1e-06

Target: Ba/F3-FGFR4-transfected cells (Homo sapiens, UniProt P22455, cells depend on it, form not given)
Assay: Ba/F3-FGFR4 cellular proliferation assay
Type: cell-based
Conditions: 24 hours, Alamar Blue
Description: Ba/F3-FGFR4 (Cellular Proliferation Assay)
as §1, with “Ba/F3-FGFR4-transfected” for “Ba/F3-FGFR3-transfected”
In this assay, the inhibitory effect of different compound concentrations (range 10 μM to 0.1 nM) was determined and used to calculate an IC50 (M) and pIC50 (−log IC50) value.

Sequence of Ba/F3-FGFR4-transfected cells (P22455 whole entry, looked up, change not shown): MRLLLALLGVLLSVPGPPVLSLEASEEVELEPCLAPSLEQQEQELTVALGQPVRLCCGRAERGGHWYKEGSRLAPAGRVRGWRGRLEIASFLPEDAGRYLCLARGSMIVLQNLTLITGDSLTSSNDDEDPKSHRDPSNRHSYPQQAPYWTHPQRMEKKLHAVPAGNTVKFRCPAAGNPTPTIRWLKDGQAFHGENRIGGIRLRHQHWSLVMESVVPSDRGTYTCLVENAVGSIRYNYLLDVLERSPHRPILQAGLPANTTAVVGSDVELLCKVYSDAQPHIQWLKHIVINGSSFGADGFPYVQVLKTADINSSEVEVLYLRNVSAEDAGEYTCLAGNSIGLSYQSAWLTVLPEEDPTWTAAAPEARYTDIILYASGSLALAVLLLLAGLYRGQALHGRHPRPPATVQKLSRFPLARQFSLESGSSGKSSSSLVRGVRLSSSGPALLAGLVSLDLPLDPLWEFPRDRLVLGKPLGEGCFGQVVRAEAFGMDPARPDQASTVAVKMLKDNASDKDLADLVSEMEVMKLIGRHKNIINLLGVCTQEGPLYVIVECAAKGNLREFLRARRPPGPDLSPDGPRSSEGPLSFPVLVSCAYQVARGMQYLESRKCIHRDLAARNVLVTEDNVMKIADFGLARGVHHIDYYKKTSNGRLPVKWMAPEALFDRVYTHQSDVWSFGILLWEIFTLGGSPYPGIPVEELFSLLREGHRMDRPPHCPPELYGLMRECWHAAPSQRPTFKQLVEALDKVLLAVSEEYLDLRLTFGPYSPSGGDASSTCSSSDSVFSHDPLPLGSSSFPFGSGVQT

SMILES	BAF3-FGFR4 (pIC50)
COc1cc(OC)c(F)c(N(Cc2ncc[nH]2)c2ccc3ncn(-c4cnn(C)c4)c(=O)c3c2)c1 [Compound 15]	5.8
COc1cc(OC)c(F)c(N(CCNC(C)C)c2ccc3ncn(-c4ccccc4)c(=O)c3c2)c1F [Compound 2]	6.3
COc1cc(OC)c(F)c(N(Cc2ncc[nH]2)c2ccc3ncn(-c4ccccc4)c(=O)c3c2)c1F [Compound 4]	5.4
COc1cc(OC)c(F)c(N(CCO)c2ccc3ncn(-c4ccccc4)c(=O)c3c2)c1 [Compound 6]	5.0

Tested on: not given
Assay: not given
Conditions: not given

SMILES	melting point [°C]
COc1cc(OC)c(F)c(N(Cc2ncc[nH]2)c2ccc3ncn(-c4cnn(C)c4)c(=O)c3c2)c1 [Compound 15]	212
COc1cc(OC)c(F)c(N(CCNC(C)C)c2ccc3ncn(-c4ccccc4)c(=O)c3c2)c1F [Compound 2]	124
COc1cc(OC)c(F)c(N(CCO)c2ccc3ncn(-c4ccccc4)c(=O)c3c2)c1 [Compound 6]	183

Target: FGFR4 (h) (Homo sapiens, UniProt P22455)
Assay: FGFR4 (enzymatic assay), TR-FRET
Type: biochemical
Conditions: 5 μM ATP; pIC50 = -log IC50 (M); read-out: FGFR 4 pIC50 (converted)

SMILES	IC50 [M]
COc1cc(OC)c(F)c(N(Cc2ncc[nH]2)c2ccc3ncn(-c4cnn(C)c4)c(=O)c3c2)c1 [Compound 15]	7.94e-09
COc1cc(OC)c(F)c(N(CCNC(C)C)c2ccc3ncn(-c4ccccc4)c(=O)c3c2)c1F [Compound 2]	3.98e-08
COc1cc(OC)c(F)c(N(Cc2ncc[nH]2)c2ccc3ncn(-c4ccccc4)c(=O)c3c2)c1F [Compound 4]	2.51e-08
COc1cc(OC)c(F)c(N(CCO)c2ccc3ncn(-c4ccccc4)c(=O)c3c2)c1 [Compound 6]	3.16e-07

Target: FGFR2 (h) (Homo sapiens, UniProt P21802)
Assay: FGFR2 (enzymatic assay), TR-FRET
Type: biochemical
Conditions: not given

Sequence of FGFR2 (h) (P21802 22-821): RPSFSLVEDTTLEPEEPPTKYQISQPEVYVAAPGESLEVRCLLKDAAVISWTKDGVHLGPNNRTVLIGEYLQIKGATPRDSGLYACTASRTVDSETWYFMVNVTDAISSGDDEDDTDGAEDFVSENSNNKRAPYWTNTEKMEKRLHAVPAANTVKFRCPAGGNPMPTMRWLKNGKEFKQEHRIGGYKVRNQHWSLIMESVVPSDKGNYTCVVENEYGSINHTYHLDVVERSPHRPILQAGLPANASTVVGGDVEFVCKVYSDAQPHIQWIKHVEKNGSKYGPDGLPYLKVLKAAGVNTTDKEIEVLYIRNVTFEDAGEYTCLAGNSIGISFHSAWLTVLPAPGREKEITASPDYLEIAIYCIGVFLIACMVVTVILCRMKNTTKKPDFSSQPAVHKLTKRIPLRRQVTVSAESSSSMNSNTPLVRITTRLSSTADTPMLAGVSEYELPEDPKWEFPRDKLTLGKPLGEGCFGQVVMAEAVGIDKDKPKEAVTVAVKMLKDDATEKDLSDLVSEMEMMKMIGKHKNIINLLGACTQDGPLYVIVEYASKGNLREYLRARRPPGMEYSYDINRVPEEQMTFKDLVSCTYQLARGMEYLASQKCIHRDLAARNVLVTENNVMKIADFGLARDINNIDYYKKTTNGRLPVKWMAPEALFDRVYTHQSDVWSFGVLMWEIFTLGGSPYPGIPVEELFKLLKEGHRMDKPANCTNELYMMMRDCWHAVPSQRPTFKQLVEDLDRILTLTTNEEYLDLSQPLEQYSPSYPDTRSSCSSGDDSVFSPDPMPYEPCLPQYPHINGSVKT

SMILES	IC50 [M]
COc1cc(OC)c(F)c(N(Cc2ncc[nH]2)c2ccc3ncn(-c4cnn(C)c4)c(=O)c3c2)c1 [Compound 15]	5.01e-09

Same assay, conditions: 0.4 μM ATP; pIC50 = -log IC50 (M); read-out: FGFR 2 pIC50 (converted)

SMILES	IC50 [M]
COc1cc(OC)c(F)c(N(CCNC(C)C)c2ccc3ncn(-c4ccccc4)c(=O)c3c2)c1F [Compound 2]	2.51e-08
COc1cc(OC)c(F)c(N(Cc2ncc[nH]2)c2ccc3ncn(-c4ccccc4)c(=O)c3c2)c1F [Compound 4]	1.26e-08
COc1cc(OC)c(F)c(N(CCO)c2ccc3ncn(-c4ccccc4)c(=O)c3c2)c1 [Compound 6]	5.01e-08

Target: FGFR1 (h) (Homo sapiens, UniProt P11362)
Assay: FGFR1 (enzymatic assay), TR-FRET
Type: biochemical
Conditions: not given

Sequence of FGFR1 (h) (P11362 22-822): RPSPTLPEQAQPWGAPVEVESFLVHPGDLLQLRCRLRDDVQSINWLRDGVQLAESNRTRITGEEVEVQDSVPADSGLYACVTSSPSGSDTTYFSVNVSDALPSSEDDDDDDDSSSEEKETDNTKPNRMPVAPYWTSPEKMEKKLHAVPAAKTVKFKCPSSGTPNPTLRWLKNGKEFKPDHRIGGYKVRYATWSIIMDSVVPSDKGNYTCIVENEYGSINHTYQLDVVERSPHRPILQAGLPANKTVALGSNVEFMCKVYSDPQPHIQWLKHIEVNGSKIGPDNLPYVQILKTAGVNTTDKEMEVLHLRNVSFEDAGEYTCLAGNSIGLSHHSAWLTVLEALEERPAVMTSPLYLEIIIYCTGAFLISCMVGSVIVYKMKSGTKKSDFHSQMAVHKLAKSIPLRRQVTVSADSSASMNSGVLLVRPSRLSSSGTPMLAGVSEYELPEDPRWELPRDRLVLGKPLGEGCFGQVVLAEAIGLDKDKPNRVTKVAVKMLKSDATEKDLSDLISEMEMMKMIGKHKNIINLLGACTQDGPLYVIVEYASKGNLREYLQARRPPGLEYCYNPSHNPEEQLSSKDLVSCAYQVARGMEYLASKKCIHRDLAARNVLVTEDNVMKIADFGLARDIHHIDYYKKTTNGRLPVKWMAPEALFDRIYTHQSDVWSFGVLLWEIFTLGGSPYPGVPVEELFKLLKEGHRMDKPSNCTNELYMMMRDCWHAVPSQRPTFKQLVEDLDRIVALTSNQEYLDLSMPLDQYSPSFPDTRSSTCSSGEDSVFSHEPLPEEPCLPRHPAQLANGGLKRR

SMILES	IC50 [µM]
COc1cc(OC)c(F)c(N(Cc2ncc[nH]2)c2ccc3ncn(-c4cnn(C)c4)c(=O)c3c2)c1 [Compound 15]	0.00501
COc1cc(OC)c(F)c(N(CCNC(C)C)c2ccc3ncn(-c4ccccc4)c(=O)c3c2)c1F [Compound 2]	0.00631
COc1cc(OC)c(F)c(N(Cc2ncc[nH]2)c2ccc3ncn(-c4ccccc4)c(=O)c3c2)c1F [Compound 4]	0.0158
COc1cc(OC)c(F)c(N(CCO)c2ccc3ncn(-c4ccccc4)c(=O)c3c2)c1 [Compound 6]	0.0794

Target: T3, Ba/F3-FGFR1-transfected cells (Homo sapiens, UniProt P11362)
T3 construct: other: minus IL3; 24 hours, Alamar Blue
Assay: Ba/F3-FGFR1 (minus IL3 or plus IL3) cellular proliferation assay
Type: cell-based
Conditions: 24 hours, Alamar Blue
Description: Ba/F3-FGFR1 (Minus IL3 or Plus IL3) (Cellular Proliferation Assay)
as §1, with “Ba/F3-FGFR1-transfected” for “Ba/F3-FGFR3-transfected”
as §2

T3 sequence (P11362 whole entry, change not shown): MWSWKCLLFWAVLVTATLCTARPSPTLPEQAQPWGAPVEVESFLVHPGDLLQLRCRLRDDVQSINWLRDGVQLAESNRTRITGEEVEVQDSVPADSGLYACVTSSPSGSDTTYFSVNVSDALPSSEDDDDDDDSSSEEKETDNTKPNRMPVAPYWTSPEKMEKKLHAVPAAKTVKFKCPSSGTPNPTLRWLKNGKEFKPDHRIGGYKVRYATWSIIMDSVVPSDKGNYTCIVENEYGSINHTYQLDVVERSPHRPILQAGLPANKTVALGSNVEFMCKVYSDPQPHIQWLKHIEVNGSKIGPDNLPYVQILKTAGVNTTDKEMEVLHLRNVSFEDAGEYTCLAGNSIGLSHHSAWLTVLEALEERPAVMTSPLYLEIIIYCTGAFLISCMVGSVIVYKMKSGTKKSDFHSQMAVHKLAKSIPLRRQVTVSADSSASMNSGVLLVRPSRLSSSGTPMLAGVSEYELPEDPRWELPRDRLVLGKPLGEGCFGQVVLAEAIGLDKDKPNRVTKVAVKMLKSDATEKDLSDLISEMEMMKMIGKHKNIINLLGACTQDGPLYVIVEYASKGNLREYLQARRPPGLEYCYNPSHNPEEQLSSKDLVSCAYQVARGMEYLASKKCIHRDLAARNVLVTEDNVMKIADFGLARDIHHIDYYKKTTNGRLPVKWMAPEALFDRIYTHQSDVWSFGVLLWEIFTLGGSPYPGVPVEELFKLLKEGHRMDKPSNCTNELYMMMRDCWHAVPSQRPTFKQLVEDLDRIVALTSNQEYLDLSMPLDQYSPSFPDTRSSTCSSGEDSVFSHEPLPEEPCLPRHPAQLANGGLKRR

SMILES	BAF3-FGFR1 (MIN IL3 pIC50)
COc1cc(OC)c(F)c(N(Cc2ncc[nH]2)c2ccc3ncn(-c4cnn(C)c4)c(=O)c3c2)c1 [Compound 15]	6.7
COc1cc(OC)c(F)c(N(CCNC(C)C)c2ccc3ncn(-c4ccccc4)c(=O)c3c2)c1F [Compound 2]	7.7
COc1cc(OC)c(F)c(N(Cc2ncc[nH]2)c2ccc3ncn(-c4ccccc4)c(=O)c3c2)c1F [Compound 4]	6.1
COc1cc(OC)c(F)c(N(CCO)c2ccc3ncn(-c4ccccc4)c(=O)c3c2)c1 [Compound 6]	5.5

Target: FGFR3 (h) (Homo sapiens, UniProt P22607)
Assay: FGFR3 (enzymatic assay), TR-FRET
Type: biochemical
Conditions: not given

Sequence of FGFR3 (h) (P22607 23-806): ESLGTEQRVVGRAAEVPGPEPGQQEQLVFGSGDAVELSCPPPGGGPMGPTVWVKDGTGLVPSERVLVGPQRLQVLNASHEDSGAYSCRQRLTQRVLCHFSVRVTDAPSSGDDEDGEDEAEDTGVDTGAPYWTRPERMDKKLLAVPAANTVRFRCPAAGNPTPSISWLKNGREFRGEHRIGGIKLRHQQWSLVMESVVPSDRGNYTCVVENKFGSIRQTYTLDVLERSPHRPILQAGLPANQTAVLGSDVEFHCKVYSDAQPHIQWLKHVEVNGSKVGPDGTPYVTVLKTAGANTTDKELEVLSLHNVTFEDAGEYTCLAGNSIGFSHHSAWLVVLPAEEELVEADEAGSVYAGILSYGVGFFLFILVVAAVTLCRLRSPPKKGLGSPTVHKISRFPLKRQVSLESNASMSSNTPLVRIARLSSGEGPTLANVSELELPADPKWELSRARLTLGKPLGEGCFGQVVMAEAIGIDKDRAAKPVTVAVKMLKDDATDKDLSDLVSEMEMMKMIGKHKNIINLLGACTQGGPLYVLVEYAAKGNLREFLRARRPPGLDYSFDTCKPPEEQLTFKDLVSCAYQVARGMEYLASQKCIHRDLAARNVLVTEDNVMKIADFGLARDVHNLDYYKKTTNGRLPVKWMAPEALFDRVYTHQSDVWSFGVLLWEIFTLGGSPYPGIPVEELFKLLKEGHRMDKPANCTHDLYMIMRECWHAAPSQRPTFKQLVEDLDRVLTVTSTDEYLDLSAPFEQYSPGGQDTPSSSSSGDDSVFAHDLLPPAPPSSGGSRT

SMILES	IC50 [M]
COc1cc(OC)c(F)c(N(CCO)c2ccc3ncn(-c4ccccc4)c(=O)c3c2)c1 [Compound 6]	3.98e-08

Same assay, conditions: 25 μM ATP; pIC50 = -log IC50 (M); read-out: FGFR3 pIC50 (converted)

SMILES	IC50 [M]
COc1cc(OC)c(F)c(N(Cc2ncc[nH]2)c2ccc3ncn(-c4cnn(C)c4)c(=O)c3c2)c1 [Compound 15]	2.51e-09
COc1cc(OC)c(F)c(N(CCNC(C)C)c2ccc3ncn(-c4ccccc4)c(=O)c3c2)c1F [Compound 2]	2.51e-08
COc1cc(OC)c(F)c(N(Cc2ncc[nH]2)c2ccc3ncn(-c4ccccc4)c(=O)c3c2)c1F [Compound 4]	7.94e-09
